Broadly, the pKa is the negative logarithm of the acid dissociation constant. Broadly, the solubility is the concentration that dissolves in the medium under given conditions.

These results are taken from patent US20260258031A1, “CRYSTALLINE FORMS OF AN ESTROGEN RECEPTOR ANTAGONIST” (Olema Pharmaceuticals, Inc., priority 2022, published 2026).

The conditions of data set [1]: co-former acid of salt screen; cited from earlier work.
A short description of data set [2]: Solubility in solvents, dynamic method. The following applies: for solubility at 15 min: organic solvent or mixture, thermodynamic from solid, dynamic method. It is filed as physicochemical. As for the experimental part:
[…] Solubility was measured by the dynamic method and gravimetric method.
Dynamic method: Under the condition of a certain amount of solute and certain temperature, solvent was gradually added with stirring for 15 min to reach equilibrium. When solute is completely dissolved, amount of solvent was recorded and the solubility calculated.

Data set [3] is described as follows: Dynamic vapor sorption (DVS), hygroscopicity. It is filed as physicochemical. The following applies: for Hygroscopicity (%), water uptake: 25° C./80% RH. Here is the method: DVS was performed using Intrinsic DVS ([…], UK). About 30-50 mg of sample was placed in a sample basked and hung in the measuring chamber. For an isotherm test, the chamber temperature was maintained by a water bath at a constant 25±1° C. The sample was tested at a targeted RH from 0 to 90% full cycle in step mode. The analysis was performed in 10% RH increments. Time duration at each RH was set as 60 min so that the sample could reach equilibrium with the chamber environment. Data were collected in 20 s increments.

Data set [4] is described as follows: Stability in oven at 60° C. for two weeks (HPLC purity, XRPD). It is filed as physicochemical. The following applies: for HPLC Purity (%) 60° C.: after two weeks at 60° C.; for HPLC Purity (%) Starting: before storage; for XRPD change after storage / Stability relative to Amorphous Compound 1: two weeks at 60° C.; for HPLC Purity (%) Degradation: two weeks at 60° C. versus starting. Here is the method:
Amorphous Compound 1, Compound 1 Fumarate Form E, and Compound 1 Fumarate Form A Anhydrate were placed in an oven at 60° C. for two weeks to evaluate their stability.

A short description of data set [5]: Kinetic solubility of Fumarate Form A Ethyl Acetate Solvate, solvent aliquot addition. It is filed as physicochemical. The following applies: thermodynamic from solid, ambient temperature. As for the experimental part: The screen consisted primarily of long term slurry experiments. To help design screen experiments, kinetic solubilities of Fumarate Form A Ethyl Acetate Solvate were estimated. The estimation was done on a 3-11 mg scale using a solvent aliquot addition method, and dissolution was judged by visual observation. Solubilities are estimated at ambient temperature and reported to the nearest mg/mL; if complete dissolution was achieved by one aliquot addition, solubilities were reported as “>”;

The nature of data set [6]: Competitive slurry experiments Form E / Form A Anhydrate (XRPD). It is filed as physicochemical. The following applies: 25° C. or 40° C. Here is the method:
Competitive slurry experiments were performed with Compound 1 Fumarate Form E and Compound 1 Fumarate Form A Anhydrate, as follows:
Experiment #1: Compound 1 Fumarate Form E (100 mg), Compound 1 Fumarate Form A Anhydrate (100 mg), and isopropanol (2 mL) were added into two 8-mL vials and mixed well in a shaker at 25° C. and 40° C., respectively. Samples for analysis were taken at 24 h and 72 h.
Experiment #2: Compound 1 Fumarate Form E (100 mg), Compound 1 Fumarate Form A Anhydrate (100 mg), and water (2 mL) were added into two 8-mL vials and mixed well in a shaker at 25° C. and 40° C., respectively. Samples for analysis were taken at 24 h and 72 h.
Experiment #3: Compound 1 Fumarate Form E (100 mg), Compound 1 Fumarate Form A Anhydrate (100 mg), and ethyl acetate (2 mL) were added into two 8-mL vials and mixed well in a shaker at 25° C. and 40° C., respectively. Samples for analysis were taken at 24 h and 72 h.

Data set [7] in a line: Solubility, gravimetric method. The following applies: H2O, 25° C.; for solubility: gravimetric method. It is filed as physicochemical. Here is the method: Solubility studies of Compound 1 and Compound 1 Fumarate in different solvents at 25° C. were performed. Solubility was measured by the dynamic method and gravimetric method.
Gravimetric method: Excess solids and a certain amount of solvent were added 8 mL vials, stirred for 24 hours, and filtered.

Data set [8] in a line: Bulk density (untapped, graduated cylinder). It is filed as physicochemical. As for the experimental part: Bulk density of Compound 1 Fumarate Form E was measured by gently introducing a known sample mass into a graduated cylinder (50 mL), leveling the powder without compacting it, and recording the apparent untapped volume to the nearest graduated unit.

“And” between values parts separate entries of the source, which are not always exact repeats. Equal entries are not always repeated. Where only a bound is given, the exact number is not on record here.

Consider `O=C1CC[C@@H](C(=O)O)N1` [(−)-L-Pyroglutamic acid], for which the pKa in data set [1] was 3.32.

Take `CCCN1CC(Oc2ccc([C@@H]3c4[nH]c5ccccc5c4C[C@@H](C)N3CC(C)(C)F)cc2)C1` [Amorphous Compound 1, (1R,3R)-2-(2-fluoro-2-methylpropyl)-3-methyl-1-(4-((1-propylazetidin-3-yl)oxy)phenyl)-2,3,4,9-tetrahydro-1H-pyrido[3,4-b]indole]: the “Solubility in isopropanol (in words)” value in data set [2] (25° C.) was “high solubility”. Also, in data set [3], the “Hygroscopicity (%), water uptake” value is listed as “hygroscopic (0.463) %” and the “Form Change after DVS?” value is given as “No”. Moreover, in data set [4], the “HPLC Purity (%) 60° C.” value stood at 98.94%, the “HPLC Purity (%) Starting” value came out at 99.23%, the “XRPD change after storage” value was “No change” and the “HPLC Purity (%) Degradation” value is on record as −0.29%.

Turning to `CCCN1CC(Oc2ccc([C@@H]3c4[nH]c5ccccc5c4C[C@@H](C)N3CC(C)(C)F)cc2)C1.O=C(O)/C=C/C(=O)O`, the solubility was > 124000 µg/mL in data set [5] (aqueous with cosolvent or surfactant or cyclodextrin, IPA/water (50/50)); 17000 µg/mL in data set [5] (organic solvent or mixture, 2-BuOH); 32000 µg/mL in data set [5] (organic solvent or mixture, 2-MeTHF); < 2000 µg/mL in data set [5] (organic solvent or mixture, ACN, re-precipitated after first aliquot); < 1000 µg/mL in data set [5] (organic solvent or mixture, Anisole); < 9000 µg/mL in data set [5] (organic solvent or mixture, DCE). Besides, the solubility in data set [5] (organic solvent or mixture, DCE/EtOH (96/4)) was ≥ 8000 µg/mL; in data set [5] (organic solvent or mixture, Dioxane), > 104000 µg/mL; in data set [5] (organic solvent or mixture, IPA), 20000 µg/mL; in data set [5] (organic solvent or mixture, MIBK), 4000 µg/mL; in data set [5] (organic solvent or mixture, MTBE), 2000 µg/mL; in data set [5] (organic solvent or mixture, TFE), > 100000 µg/mL. In addition, the solubility in data set [5] (organic solvent or mixture, t-BuOAc, re-precipitated after first aliquot) came out at 1000 µg/mL.

In the case of `O=C(O)c1cc2ccccc2c(Cc2c(O)c(C(=O)O)cc3ccccc23)c1O` [Pamoic Acid], the pKa in data set [1] was 2.51.

`O=C(O)CO` [Glycolic Acid]: in data set [1], the pKa was 3.28.

Consider `CCCN1CC(Oc2ccc([C@@H]3c4[nH]c5ccccc5c4C[C@@H](C)N3CC(C)(C)F)cc2)C1.O=C(O)/C=C/C(=O)O` [Compound 1 Fumarate Form A Anhydrate], for which, in data set [6] (ethyl acetate, after 72 h), the “Outcome of competitive slurry (XRPD)” value was “a mixture of Compound 1 Fumarate Form E and Compound 1 Fumarate Form A Anhydrate remained”. In addition, the “Outcome of competitive slurry (XRPD)” value in data set [6] (isopropanol, after 24 h) was “completely transformed into Compound 1 Fumarate Form E”. Moreover, the “Outcome of competitive slurry (XRPD)” value in data set [6] (water, after 72 h) was “a mixture of Compound 1 Fumarate Form E and Compound 1 Fumarate Form A Anhydrate remained”. For the same compound, in data set [3], the “Hygroscopicity (%), water uptake” value is reported as “hygroscopic (0.108) %” and the “Form Change after DVS?” value is on record as “No”. In addition, the solubility in data set [7] was found to be 6500 µg/mL. Moreover, in data set [4], the “HPLC Purity (%) 60° C.” value is listed as 99.54%, the “HPLC Purity (%) Starting” value was determined as 99.58%, the “Stability relative to Amorphous Compound 1” value is given as “improved stability” and the “XRPD change after storage” value is listed as “No change”. Besides, the “HPLC Purity (%) Degradation” value in data set [4] is reported as −0.04%.

For `O=C(O)/C=C/C(=O)O` [Fumaric acid], in data set [2] (25° C.), the “Solubility in isopropanol (in words)” value is recorded as “relatively low solubility”.

Turning to `CCCN1CC(Oc2ccc([C@@H]3c4[nH]c5ccccc5c4C[C@@H](C)N3CC(C)(C)F)cc2)C1.O=C(O)/C=C/C(=O)O` [Compound 1 Fumarate Form E], the “Solubility in isopropanol (in words)” value in data set [2] (25° C.) was “very low solubility”. The “Change of solubility with increasing proportion of heptane” value in data set [2] (isopropanol/heptane, 25° C.) was “decreased significantly”. Also, the solubility at 15 min in data set [2] (IPA, 0° C.) was < 1000 µg/mL; in data set [2] (IPA, 25° C.) it was ~8460 µg/mL; in data set [2] (IPA/heptane (1/1), 25° C.) it was ~2350 µg/mL; in data set [2] (IPA/heptane (1/3), 25° C.) it was < 1000 µg/mL; in data set [2] (IPA/heptane (5/1), 25° C.) it was 5890 µg/mL; in data set [2] (IPA/heptane (5/3), 25° C.), ~3570 µg/mL. The “Outcome of competitive slurry (XRPD)” value in data set [6] (ethyl acetate, after 72 h) is “a mixture of Compound 1 Fumarate Form E and Compound 1 Fumarate Form A Anhydrate remained”; in data set [6] (isopropanol, after 24 h), “more stable than Form A Anhydrate”; in data set [6] (water, after 72 h) it was “a mixture of Compound 1 Fumarate Form E and Compound 1 Fumarate Form A Anhydrate remained”. For the same compound, in data set [8] (average of three runs), the “Bulk Density, Average” value is 0.1239 g/mL. Moreover, the “Bulk Density” value in data set [8] (single runs 1-3, untapped) was 0.1288 g/mL and 0.1233 g/mL and 0.1196 g/mL. Also, the “Hygroscopicity by DVS (in words)” value in data set [3] (25° C., 0 to 90% RH cycle) is “not hygroscopic”. Also, in data set [7], the “Solubility compared with Compound 1 Fumarate Form A Anhydrate” value was “much lower solubility”. Also, in data set [7], the solubility was 1000 µg/mL. Moreover, the “HPLC Purity (%) 60° C.” value in data set [4] stood at 99.50%. Also, the “HPLC Purity (%) Starting” value in data set [4] worked out at 99.54%. For the same compound, the “Stability relative to Amorphous Compound 1” value in data set [4] was “improved stability”. In addition, in data set [4], the “XRPD change after storage” value is given as “No change”. The “HPLC Purity (%) Degradation” value in data set [4] is recorded as −0.05%.
